Experimental findings from patent US7723056B1, “Particles” (The University of Manchester, priority 1997, dated 2010) are described below.

Residues, ends and D or L forms follow the SMILES beside them. *: point of attachment. Myristoyl = CCCCCCCCCCCCCC(=O)*

This data set concerns erythrocytes. Put plainly: Haemoglobin assay of erythrocyte lysis. The format is cell-based, rats. The note with it: rat erythrocytes, no bacteria; haemoglobin at 578 nm; 100% = Triton X100. As to the method:
Fresh rats blood was obtained with sodium heparin added to prevent clotting. Following centrifugation at 600 g for 10 mins and discarding of the supernatant, the pelleted erythrocytes were resuspended and washed three times in isotonic sucrose-glucose phosphate buffer (0.2M sucrose, 0.1M glucose 10 mM sodium phosphate, pH 7.3). Erythrocytes were used on the same day.
Leakage of haemoglobin from the erythrocytes (50 μl aliquots) was assayed spectrophotometrically at 578 nm against isotonic sucrose glucose phosphate buffer. Percentage lysis of the erythrocytes was established by construction of a standard curve. The supernatant from the centrifuged cells (3.2) represented 0% whereas 100% lysis obtained by incubation with 20 ul 10% v/v Triton X100 for 10 minutes.
Cultures were centrifuged at 600 g for 10 minutes and the supernatant examined spectrophotometrically as described above to assess erythrocyte lysis. In the presence of particles (but no bacteria) erythrocyte lysis varied between 0.88 and 0.61% with a mean of 0.73%. Addition of M-GALA alone to erythrocytes produced a lysis of 0.31%. No lysis occurred for erythrocytes left in buffer only.

As for `CCCCCCCCCCCCCC(=O)N[C@@H](Cc1c[nH]c2ccccc12)C(=O)N[C@@H](CCC(=O)O)C(=O)N[C@@H](C)C(=O)N[C@@H](C)C(=O)N[C@@H](CC(C)C)C(=O)N[C@@H](C)C(=O)N[C@@H](CCC(=O)O)C(=O)N[C@@H](C)C(=O)N[C@@H](CC(C)C)C(=O)N[C@@H](C)C(=O)N[C@@H](CCC(=O)O)C(=O)N[C@@H](C)C(=O)N[C@@H](CC(C)C)C(=O)N[C@@H](C)C(=O)N[C@@H](CCC(=O)O)C(=O)N[C@@H](Cc1c[nH]cn1)C(=O)N[C@@H](CC(C)C)C(=O)N[C@@H](C)C(=O)N[C@@H](CCC(=O)O)C(=O)N[C@@H](C)C(=O)N[C@@H](CC(C)C)C(=O)N[C@@H](C)C(=O)N[C@@H](CCC(=O)O)C(=O)N[C@@H](C)C(=O)N[C@@H](CC(C)C)C(=O)N[C@@H](CCC(=O)O)C(=O)N[C@@H](C)C(=O)N[C@@H](CC(C)C)C(=O)N[C@@H](C)C(=O)N[C@@H](C)C(=O)O` [M-GALA, N, Myristic-GALA] (Myristoyl-WEAALAEALAEALAEHLAEALAEALEALAA-OH), the erythrocyte lysis stood at 0.31%.
